Where two headings read alike, the source gives them in different places. Some results are limits rather than exact numbers.

This note sets out measurements from paper PMC8369186, “Ligand-Based and Docking-Based Virtual Screening of MDM2 Inhibitors as Potent Anticancer Agents” (Computational and Mathematical Methods in Medicine, 2021).

Assay [1] concerns MCF7 (p53 +/+) cells. Kind of assay: cells. The settings on record: read-out: IC50 (μM) ± SD MCF7 (p53 +/+). The format is cell-based, human. As to the method: (§1) Compounds were tested at six concentrations (0.001–100 μM).
(§2) The cells were seeded into a 96-well plate and incubated at 37°C in 5% CO2 for 24 h, after which the test compounds were added to the culture medium and the cells were incubated for 48 h. 20 μL fresh MTT was added to each well, and the cells were incubated at 37°C in 5% CO2 for 4 h. After removing the culture medium, 150 μL DMSO was added to dissolve the formazan crystals. The absorbance at 540 nm was measured using a microplate reader. The results, expressed as IC50 values, were the average of three determinations and were calculated using nonlinear regression analysis.

The test system of assay [2] is HCT116 (p53 +/+) cells. Kind of assay: cells. The format is cell-based, human. Particulars: read-out: IC50 (μM) ± SD HCT116 (p53 +/+). As for the experimental part:
as §1, §2

The subject of assay [3] is HCT116 (p53 -/-) cells. Description: cells. The format is cell-based, human. The settings on record: read-out: IC50 (μM) ± SD HCT116 (p53 -/-). As to the method:
as §1, §2

Assay [4] addresses T1, Cathepsin K (Homo sapiens, UniProt P43235).
T1 sequence (P43235 115-329): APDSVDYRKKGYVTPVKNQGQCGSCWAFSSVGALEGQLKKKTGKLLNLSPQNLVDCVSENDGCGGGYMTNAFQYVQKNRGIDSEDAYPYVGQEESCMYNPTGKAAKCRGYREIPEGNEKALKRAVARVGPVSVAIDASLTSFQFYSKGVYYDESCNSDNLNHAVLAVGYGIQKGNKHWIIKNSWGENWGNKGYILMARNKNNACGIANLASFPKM
Description: Cathepsin K inhibitory activity. The format is biochemical.

Assay [5] deals with MDM2 (Homo sapiens, UniProt Q00987). Kind of assay: MDM2 binding assay (fluorescence polarization). Particulars: for Inhibition (200 μM, %): 200 μM compound; for inhibition at 200 µM: read-out: Inhibition (200 μM, %), 200 μM compound. As for the experimental part: The MDM2 binding tests of all 17 compounds were carried out by a fluorescence polarization assay.
Chain of MDM2 (Q00987 whole entry): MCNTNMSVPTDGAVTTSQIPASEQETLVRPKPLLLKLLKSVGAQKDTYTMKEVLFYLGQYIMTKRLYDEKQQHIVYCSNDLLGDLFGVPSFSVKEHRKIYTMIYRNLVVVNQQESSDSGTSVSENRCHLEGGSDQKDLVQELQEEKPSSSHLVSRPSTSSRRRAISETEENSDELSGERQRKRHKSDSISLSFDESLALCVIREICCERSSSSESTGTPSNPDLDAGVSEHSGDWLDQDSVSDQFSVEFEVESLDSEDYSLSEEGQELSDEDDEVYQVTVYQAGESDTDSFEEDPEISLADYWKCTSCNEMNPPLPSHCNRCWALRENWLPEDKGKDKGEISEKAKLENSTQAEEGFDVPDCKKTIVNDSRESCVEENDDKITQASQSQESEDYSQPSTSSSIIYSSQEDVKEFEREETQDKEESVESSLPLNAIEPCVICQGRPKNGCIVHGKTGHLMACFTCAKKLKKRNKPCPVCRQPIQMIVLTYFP
30 nM preincubated (30 min) MDM2 and 10 nM PMDM-F peptide in reaction buffer (100 μL, potassium phosphate, 100 mM; bovine gamma globulin, […]; sodium azide, 0.02%) were added into a 96-well plate containing tested compounds at pH 7.5. […] The Ki values were calculated according to a reported method.
For orientation: In fluorescence polarisation assays a small probe gives low polarisation when free and higher when bound to something large.

Assay [6] concerns MCF7 (p53 -/-) cells. Description: cells. The settings on record: Homo sapiens, read-out: IC50 (μM) ± SD MCF7 (p53 -/-). The format is cell-based. As to the method: as §1, §2
Setting [7] is: Homo sapiens, HCT-116, MTT, 48 h.

On to `COc1ccc(C2=N[C@@H](c3ccc(Cl)cc3)[C@@H](c3ccc(Cl)cc3)N2C(=O)N2CCNC(=O)C2)c(OC(C)C)c1` [Nutlin-3a, reference compound], for which the IC50 was 32.2 ± 1.49 µM in assay [1] (MTT, 48 h); 18.1 ± 2.17 µM in assay [2] (MTT, 48 h); 40.7 ± 1.47 µM in assay [3] (MTT, 48 h).

As a reminder, the Ki is the equilibrium dissociation constant of an inhibitor or competing ligand from its target. Low values mean higher affinity, high ones lower affinity. By inhibition is commonly meant the drop in the measured response relative to a control, in per cent. As to `CCOC(=O)/C=C1\NC(C)(C)Cc2cc(OC)c(OC)cc21` [Compound 6, Ethyl (6,7-dimethoxy-3,3-dimethyl-3,4-dihydro-1(2H)-isoquinolinylidene)acetate], in assay [4] (read-out: Cathepsin K IC50), the IC50 was over 200 µM. Moreover, in assay [5], the inhibition constant (Ki) was over 200 µM and the inhibition at 200 µM is under 50%. Further, the “Inhibition (200 μM, %)” value in assay [5] (200 µM) is 46.6%.

As to `CCOC(=O)c1c(-c2ccccc2)oc2ccc(O)c(CN(C)C)c12` [Compound 17, Ethyl 4-[(dimethylamino)methyl]-5-hydroxy-2-phenyl-1-benzofuran-3-carboxylate], the IC50 in assay [4] (read-out: Cathepsin K IC50) is over 200 µM. Moreover, in assay [5], the inhibitory constant (Ki) is over 200 µM and the inhibition at 200 µM was under 50%. In addition, in assay [5] (200 µM), the “Inhibition (200 μM, %)” value was found to be 47.3%.

As for `[N-]=[N+]=CC(=O)C(O)(c1ccccc1)C(Cl)c1ccccc1` (stereo not shown) [Compound 12, 4-chloro-1-diazo-3-hydroxy-3,4-diphenyl-2-butanone], the IC50 in assay [4] (read-out: Cathepsin K IC50) is over 200 µM. In assay [5], this molecule gave a Ki of over 200 µM. In addition, the “Inhibition (200 μM, %)” value is listed as 18.8% in assay [5] (200 µM) and under 50% in assay [5] (listed as AB-131/42300827, 200 µM).

In the case of `O=c1nc(SCc2nc3ccccc3n2Cc2ccccc2)[nH]c2ccccc12` [Compound 3, 2-{[(1-benzyl-1H-benzimidazol-2-yl)methyl]sulfanyl}-4(1H)-quinazolinone], the IC50 in assay [4] (read-out: Cathepsin K IC50) was over 200 µM. Besides, in assay [5], the inhibitory constant (Ki) was 104 µM and the inhibition at 200 µM was determined as 62.4%.

As for `CC(C)N(C(=O)Cn1c(COc2ccc3ccccc3c2)nc2ccccc21)c1ccccc1` [Compound 4, N-isopropyl-2-{2-[(2-naphthyloxy)methyl]-1H-benzimidazol-1-yl}-N-phenylacetamide], the IC50 in assay [4] (read-out: Cathepsin K IC50) was over 200 µM. In assay [5], the affinity corresponds to a Ki of 99.5 µM and the inhibition at 200 µM was determined as 76.3%.

Take `CC(C)(F)C[C@H](N[C@@H](c1ccc(-c2ccc(S(C)(=O)=O)cc2)cc1)C(F)(F)F)C(=O)NC1(C#N)CC1` [Odancatib, reference compound]: the IC50 in assay [4] (read-out: Cathepsin K IC50) was found to be 0.001 µM.

As to `CCOC(=O)c1nnn(-c2nonc2N)c1CNc1ccccc1` [Compound 14, Ethyl 1-(4-amino-1,2,5-oxadiazol-3-yl)-5-(anilinomethyl)-1H-1,2,3-triazole-4-carboxylate], the IC50 in assay [4] (read-out: Cathepsin K IC50) was over 200 µM. In assay [5], the Ki was determined as 127 µM and the inhibition at 200 µM was 68.6%.

For `O=C(c1cc2n(n1)C(C(F)(F)F)CC(c1ccc(Br)cc1)N2)N(Cc1ccccc1)c1ccccc1` (stereo not shown) [Compound 9, N-benzyl-5-(4-bromophenyl)-N-phenyl-7-(trifluoromethyl)-4,5,6,7-tetrahydropyrazolo[1,5-a]pyrimidine-2-carboxamide], in assay [4] (read-out: Cathepsin K IC50), the IC50 is over 200 µM. In assay [5], the inhibition constant Ki was over 200 µM and the inhibition at 200 µM was under 50%. Moreover, the “Inhibition (200 μM, %)” value in assay [5] (200 µM) is on record as 37.6%.

Take `Cc1nn(-c2ccccc2)c(O)c1/N=N/c1cccc2ncccc12` [Compound 16, 3-Methyl-1-phenyl-4-(quinolin-5-yldiazenyl)-1H-pyrazol-5-ol]: the IC50 in assay [4] (read-out: Cathepsin K IC50) was over 200 µM. The same molecule gave an inhibitory constant (Ki) in assay [5] (fluorescence polarization, eight concentrations 0.091–200 μM) of 64.6 µM. In addition, the inhibition at 200 µM in assay [5] was 72.4%.

Regarding `COc1ccc(OCc2nnc3sc(COc4ccccc4Cl)nn23)cc1` [Compound 11, 6-[(2-chlorophenoxy)methyl]-3-[(4-methoxyphenoxy)methyl][1,2,4]triazolo[3,4-b][1,3,4]thiadiazole], in assay [4] (read-out: Cathepsin K IC50), the IC50 was over 200 µM. For the same molecule, in assay [5], the Ki was over 200 µM and the inhibition at 200 µM is under 50%. Also, the “Inhibition (200 μM, %)” value in assay [5] (200 µM) stood at 32.3%.

For the molecule `CCc1nnc(NC(=O)CSc2nnc(COc3ccccc3)n2-c2ccc(C)cc2)s1` [Compound 7, N-(5-ethyl-1,3,4-thiadiazol-2-yl)-2-{[4-(4-methylphenyl)-5-(phenoxymethyl)-4H-1,2,4-triazol-3-yl]sulfanyl}acetamide], the IC50 in assay [4] (read-out: Cathepsin K IC50) was over 200 µM. Also, in assay [5], the Ki was 98.3 µM and the inhibition at 200 µM worked out at 63.7%.

For `CCOC(=O)c1cc(C(C)c2ccccc2)sc1NC(=O)c1cccc(COc2ccccc2Cl)c1` (stereo not shown) [Compound 1, Ethyl 2-({3-[(2-chlorophenoxy)methyl]benzoyl}amino)-5-(1-phenylethyl)-3-thiophenecarboxylate], in assay [4] (read-out: Cathepsin K IC50), the IC50 was over 200 µM. In assay [5], the affinity, expressed as Ki, was 43.5 µM and the inhibition at 200 µM was over 80%. In addition, the “Inhibition (200 μM, %)” value in assay [5] (200 µM) stood at 80.2%.

For the molecule `C=CCn1c(COc2ccccc2)nnc1SC(C)C(=O)NN=Cc1ccccc1F` (stereo not shown) [Compound 8, 2-{[4-allyl-5-(phenoxymethyl)-4H-1,2,4-triazol-3-yl]sulfanyl}-N'-(2-fluorobenzylidene)propanohydrazide], the IC50 in assay [6] (MCF7, MTT, 48 h) is over 100 µM; in assay [1] (Homo sapiens, MCF7, MTT, 48 h), over 100 µM; in assay [2] (setting [7]), over 100 µM; in assay [3] (setting [7]) it was over 100 µM; in assay [4] (read-out: Cathepsin K IC50), over 200 µM. In assay [5], this molecule gave an inhibition constant Ki of 23.4 µM. The “Inhibition (200 μM, %)” value in assay [5] (200 µM) is recorded as 84.7%. Also, the inhibition at 200 µM in assay [5] was over 80%.

`O=C(O)CC1c2ccccc2CCN1S(=O)(=O)c1ccccc1` (stereo not shown) [Compound 15, [2-(phenylsulfonyl)-1,2,3,4-tetrahydroisoquinolin-1-yl]acetic acid]: the IC50 in assay [6] (MCF7, MTT, 48 h) was over 100 µM; in assay [1] (Homo sapiens, MCF7, MTT, 48 h), over 100 µM; in assay [2] (setting [7]) it was 28.1 ± 2.53 µM; in assay [3] (setting [7]), 51.7 ± 4.15 µM; in assay [4] (read-out: Cathepsin K IC50) it was over 200 µM. The molecule further gave a Ki in assay [5] of 23.1 µM. Besides, the “Inhibition (200 μM, %)” value in assay [5] (200 µM) is 82.1%. For the same molecule, the inhibition at 200 µM in assay [5] is over 80%.

In the case of `COC(=O)C1C(CBr)N1N1C(=O)c2ccccc2C1=O` (stereo not shown) [Compound 13, Methyl 3-(bromomethyl)-1-(1,3-dioxo-1,3-dihydro-2H-isoindol-2-yl)-2-aziridinecarboxylate], the IC50 in assay [4] is over 200 µM. Moreover, in assay [5], the Ki is over 200 µM and the inhibition at 200 µM was under 50%. In assay [5] (200 µM), the “Inhibition (200 μM, %)” value amounted to 42.9%.

Turning to `C=CCn1c(SCC(=O)N2N=C(c3ccco3)CC2c2ccco2)nnc1-c1ccncc1` (stereo not shown) [Compound 2, 4-allyl-5-(4-pyridinyl)-4H-1,2,4-triazol-3-yl 2-[3,5-di(2-furyl)-4,5-dihydro-1H-pyrazol-1-yl]-2-oxoethyl sulfide], the IC50 in assay [6] (MCF7, MTT, 48 h) was over 100 µM; in assay [1] (Homo sapiens, MCF7, MTT, 48 h), over 100 µM; in assay [2] (setting [7]), 35.5 ± 1.48 µM; in assay [3] (setting [7]) it was 58.2 ± 4.57 µM; in assay [4] (read-out: Cathepsin K IC50), over 200 µM. The affinity in assay [5], expressed as Ki, was 9.5 µM. In addition, in assay [5] (200 µM), the “Inhibition (200 μM, %)” value was determined as 95.8%. In addition, in assay [5], the inhibition at 200 µM was over 80%.

Turning to `COc1cccc(OCC(=O)N(Cc2nc(-c3ccccc3)no2)C2CCCCC2)c1` [Compound 10, N-cyclohexyl-2-(3-methoxyphenoxy)-N-[(3-phenyl-1,2,4-oxadiazol-5-yl)methyl]acetamide], the IC50 is 26.7 ± 1.65 µM in assay [6] (MCF7, MTT, 48 h); 19.4 ± 2.26 µM in assay [1] (Homo sapiens, MCF7, 48 h); 12.6 ± 2.32 µM in assay [2] (Homo sapiens, HCT-116, 48 h); 24.1 ± 2.31 µM in assay [3] (Homo sapiens, HCT-116, 48 h); over 200 µM in assay [4] (read-out: Cathepsin K IC50). The same molecule registered an inhibitory constant (Ki) in assay [5] of 3.2 µM. Also, the “Inhibition (200 μM, %)” value in assay [5] (200 µM) was determined as 96.5%. Also, the inhibition at 200 µM in assay [5] is over 80%. In addition, the “fold less potent in MDM2 binding affinity than nutlin-3a” value in assay [5] (versus nutlin-3a) is on record as “approximately 20 fold”.

Take `O=S(=O)(Nc1nc2ccccc2nc1Nc1cccc(O)c1)c1ccc(Cl)cc1` [Compound 5, 4-chloro-N-[3-(3-hydroxyanilino)-2-quinoxalinyl]benzenesulfonamide]: the IC50 in assay [6] (MCF7, 48 h) is 56.4 ± 4.12 µM; in assay [1] (Homo sapiens, MCF7, 48 h) it was 40.2 ± 1.77 µM; in assay [2] (Homo sapiens, HCT-116, 48 h) it was 17.4 ± 1.8 µM; in assay [3] (Homo sapiens, HCT-116, 48 h), 40.8 ± 3.54 µM; in assay [4] (read-out: Cathepsin K IC50), over 200 µM. The affinity in assay [5], expressed as Ki, was 8.5 µM. Besides, the “Inhibition (200 μM, %)” value in assay [5] (200 µM) is 90.31%. In assay [5], the inhibition at 200 µM was over 80%.
